Test [1] deals with cholesterol absorption. As to the kind of experiment: Acute rat cholesterol absorption study. In kind it is in vivo. To be noted: rat acute cholesterol absorption model. The procedure:
To determine if in vitro binding activity is predictive of in vivo efficacy, the enantiomer of ezetimibe glucuronide and several close structural analogues of ezetimibe glucuronide that were tested in the rat membrane binding assay were tested in an acute rat cholesterol absorption study as described in Examples 23-26. […] For the other analogs, the same rank order of potency is observed in the in vitro and in vivo assays, further evidence that the observed binding is due to the target of ezetimibe.

The test system of test [2] is human, mouse or rat NPC1L1-CHO overexpressing membranes. Description: SPA assay. In kind it is binding. To be noted: 0.1 nM ligand. The procedure:
For each well of a 96 well plate, a reaction mixture of 10 μg human, mouse or rat NPC1L1-CHO overexpressing membranes (Biosignal) and 200 μg/well YSi-WGA-SPA beads (Amersham) in 100 μl is prepared in NPC1L1 assay buffer (25 mM HEPES, pH 7.8, 2 mM CaCl2, 1 mM MgCl2, 125 mM NaCl, 0.1% BSA). A 0.4 nM stock of ligand-[^125I]-ezetimibe- is prepared in the NPC1L1 assay buffer. The above solutions are added to a 96-well assay plate as follows: 50 μl NPC1L1 assay buffer, 100 μl of reaction mixture, 50 μl of ligand stock (final ligand concentration is 0.1 nM). The assay plates are shaken for 5 minutes on a plate shaker, then incubated for 8 hours before cpm/well are determined in Microbeta Trilux counter (PerkinElmer).

Another test deals with T1, mouse NPC1L1 (Mus musculus, UniProt Q6T3U4).
T1 construct: expressed in transfected cells; pCDNA3)
As to the kind of experiment: Effect of ezetimibe on cholesterol uptake, mouse NPC1L1 transfected CHO cells. The test is classed as cell-based. To be noted: EZ (10 μM), mNPC1L1(C7). The procedure:
(§1) The effect of ezetimibe on the ability of CHO cells stably transfected with mouse or rat NPC1L1 or mouse SR-B1 to take up ^3H-labeled cholesterol was evaluated in pulse-chase experiments. One cDNA clone of mouse NPC1L1 (C7) and three clones of rat NPC1L1 (C7, C17 and C21) were evaluated. The ability of CHO cells stably transfected with mouse SR-B1, mouse NPC1L1 and rat NPC1L1 to take up labeled cholesterol, in the absence of ezetimibe, was also evaluated in the pulse-chase experiments. Data generated in these experiments are set forth, below, in Tables 4 and 5. Additionally, the quantity of total cholesterol taken up by transfected and untransfected CHO cells in the presence of four different unlabeled cholesterol concentrations was also evaluated.
(§2) Starve. The maintenance media (F12 HAMS, 1% Pen/Strep, 10% FCS) was removed and the cells were rinsed with serum-free HAMS media. The serum-free media was then replaced with 1 mL “starve” media (F12 HAMS, Pen/Strep, 5% lipoprotein deficient serum (LPDS). The cells were then starved overnight.
(§3) Pre-Incubation/pre-dose. Media was removed from all plates and replaced with fresh starve media and preincubated for 30 minutes. Half of the wells received media containing ezetimibe (stock soln in EtOH; final conc.=10 μM).
(§4) ^3H-Cholesterol Pulse. The following was added directly to each well: • 0.5 μCi ^3H-cholesterol (˜1.1×10^6 dpm/well) in 50 μl of a mixed bile salt micelle • 4.8 mM sodium taurocholate (2.581 mg/mL) • 0.6 mM sodium oleate (0.183 mg/mL) • 0.25 mM cholesterol (0.1 mg/mL) • Dispersed in “starve” media by ultrasonic vibration • Final media cholesterol concentration=5 μg/mL
(§5) Labeled cholesterol pulse time points were 4, 12, 24 minutes and 4 hours. Triplicate wells were prepared for each treatment.
(§6) Wash. At designated times, media was aspirated and cells were washed once with Hobbs Buffer A (50 mM Tris, 0.9% NaCl, 0.2% bovine serum albumin (BSA), pH 7.4) and once with Hobbs Buffer B (50 mM Tris, 0.9% NaCl, pH 7.4 (no BSA)) at 37° C.
(§7) A. 4, 12, 24 minute time points: Cells were digested overnight with 0.2N NaOH, 2 mL/well, room temperature. One 1.5 mL aliquot was removed from each well, neutralized & counted for radioactivity by scintillation counting.
(§8) B. 4 hour time point: The digested cells were analyzed by thin-layer chromatography to determine the content of cholesterol ester in the cells.
(§9) Extracts were spotted onto TLC plates and run for 30 minutes in 2 ml hexane:isopropanol (3:2) mobile phase for 30 minutes, followed by a second run in 1 ml hexane:isopropanol (3:2) mobile phase for 15 minutes.
(§10) C. Protein determination of cell extracts. Plates containing a sample of the cell extracts were placed on orbital shaker at 120 rpm for indicated times and then extracts are pooled into 12×75 tubes. Plates were dried and NaOH (2 ml/well) added. The protein content of the samples were then determined. Two additional 50 μl aliquots from all wells were assayed for total protein by the Pierce micro BCA method. The quantity of labeled cholesterol observed in the cells was normalized to the quantity of protein in the cells.

Test [3] relates to cholesterol absorption. To be noted: rat; cited from earlier work.
Test [4] relates to cholesterol absorption. To be noted: cited from earlier work.
For a further test, the target named is rat NPC1L1 (Rattus norvegicus, UniProt Q6T3U3). Description: Effect of ezetimibe on cholesterol uptake, rat NPC1L1 transfected CHO cells. The test is classed as cell-based. The arrangement: expressed in transfected cells; pCDNA3). To be noted: EZ (10 μM); for Cholesteryl Ester, dpm ± sem / Cholesteryl Ester, dpm/mg protein ± sem / Free Cholesterol, dpm ± sem / Free Cholesterol, dpm/mg protein ± sem: 4 Hour Pulse. The procedure:
as §1, §2, §3, §4, §5, §6, §7, §8, §9, §10

Entries after “also recorded” stand apart in the source; their conditions may differ. Like-named read-outs stand apart in the source and are kept apart here.

As usually defined, the ED50 is the dose that gives a 50% effect, or the effect in half of the subjects.

With `O=C(O)C1OC(Oc2ccc(C3C(CCC(O)c4ccc(F)cc4)C(=O)N3c3ccc(F)cc3)cc2)C(O)C(O)C1O` (single isomer, unassigned) [Compound 4], the activity in vivo entry with cholesterol absorption [1] was “inactive; also recorded: lack of activity”.

As to `O=C1[C@H](CC[C@H](O)c2ccc(F)cc2)[C@@H](c2ccc(O)cc2)N1c1ccc(F)cc1` [ezetimibe], the “binding to cell membranes expressing human, mouse or rat NPC1L1” value in test [2] was “binds”. Moreover, the “Cholesteryl Ester, dpm ± sem” value on mouse NPC1L1 (4 Hour Pulse) was determined as 453 ± 118 dpm; on rat NPC1L1 (rNPC1L1(C7)), 191 ± 54 dpm; on rat NPC1L1 (rNPC1L1(C17)) it was 202 ± 10 dpm; on rat NPC1L1 (rNPC1L1(C21)), 454 ± 33 dpm. In addition, the “Cholesteryl Ester, dpm/mg protein ± sem” value is reported as 3057 ± 776 dpm/mg protein on mouse NPC1L1 (4 Hour Pulse), 1496 ± 403 dpm/mg protein at rat NPC1L1 (rNPC1L1(C7)), 1510 ± 62 dpm/mg protein at rat NPC1L1 (rNPC1L1(C17)) and 3193 ± 265 dpm/mg protein on rat NPC1L1 (rNPC1L1(C21)). In addition, the “Free Cholesterol, dpm ± sem” value on mouse NPC1L1 (4 Hour Pulse) is 77516 ± 1910 dpm; on rat NPC1L1 (rNPC1L1(C7)), 70628 ± 212 dpm; at rat NPC1L1 (rNPC1L1(C17)), 71646 ± 446 dpm; at rat NPC1L1 (rNPC1L1(C21)), 69106 ± 711 dpm. The “Free Cholesterol, dpm/mg protein ± sem” value was 523803 ± 10386 dpm/mg protein on mouse NPC1L1 (4 Hour Pulse), 556855 ± 7481 dpm/mg protein at rat NPC1L1 (rNPC1L1(C7)), 536651 ± 7146 dpm/mg protein on rat NPC1L1 (rNPC1L1(C17)) and 485460 ± 4410 dpm/mg protein on rat NPC1L1 (rNPC1L1(C21)). Besides, the “Total Cholesterol, dpm ± sem” value at mouse NPC1L1 (4 Min Pulse) was 4569 ± 222 dpm; on mouse NPC1L1 (12 Min Pulse), 6120 ± 755 dpm; at mouse NPC1L1 (24 Min Pulse), 9749 ± 482 dpm; on rat NPC1L1 (4 Min Pulse, rNPC1L1(C7)), 3268 ± 121 dpm; on rat NPC1L1 (4 Min Pulse, rNPC1L1(C17)) it was 3676 ± 134 dpm; at rat NPC1L1 (4 Min Pulse, rNPC1L1(C21)), 3769 ± 147 dpm. Also, the “Total Cholesterol, dpm ± sem” value was 4664 ± 63 dpm at rat NPC1L1 (12 Min Pulse, rNPC1L1(C7)); 4579 ± 257 dpm at rat NPC1L1 (12 Min Pulse, rNPC1L1(C17)); 4703 ± 231 dpm at rat NPC1L1 (12 Min Pulse, rNPC1L1(C21)); 7829 ± 204 dpm on rat NPC1L1 (24 Min Pulse, rNPC1L1(C7)); 8192 ± 237 dpm on rat NPC1L1 (24 Min Pulse, rNPC1L1(C17)); 8760 ± 293 dpm on rat NPC1L1 (24 Min Pulse, rNPC1L1(C21)). Besides, the “Total Cholesterol, dpm/mg protein ± sem” value at mouse NPC1L1 (4 Min Pulse) came to 30916 ± 1137 dpm/mg protein; at mouse NPC1L1 (12 Min Pulse), 41712 ± 4054 dpm/mg protein; on mouse NPC1L1 (24 Min Pulse) it was 74041 ± 3670 dpm/mg protein; at rat NPC1L1 (4 Min Pulse, rNPC1L1(C7)), 27285 ± 968 dpm/mg protein; on rat NPC1L1 (4 Min Pulse, rNPC1L1(C17)) it was 28675 ± 527 dpm/mg protein; on rat NPC1L1 (4 Min Pulse, rNPC1L1(C21)) it was 27098 ± 689 dpm/mg protein. Also, the “Total Cholesterol, dpm/mg protein ± sem” value on rat NPC1L1 (12 Min Pulse, rNPC1L1(C7)) is 38581 ± 784 dpm/mg protein; at rat NPC1L1 (12 Min Pulse, rNPC1L1(C17)), 34063 ± 1619 dpm/mg protein; on rat NPC1L1 (12 Min Pulse, rNPC1L1(C21)), 33985 ± 1928 dpm/mg protein; on rat NPC1L1 (24 Min Pulse, rNPC1L1(C7)), 63482 ± 368 dpm/mg protein; at rat NPC1L1 (24 Min Pulse, rNPC1L1(C17)), 62279 ± 4352 dpm/mg protein; on rat NPC1L1 (24 Min Pulse, rNPC1L1(C21)), 66165 ± 2181 dpm/mg protein. In addition, the results for the “potency (ED50) in vivo” value with cholesterol absorption [3] and in the test on cholesterol absorption [4] (rhesus) were 0.03 mpk and 0.0005 mpk, respectively. The 50% effective dose (ED50) with cholesterol absorption [4] (monkey) was 0.5 µg/kg.

Source of the values: patent US7901893B2, “NPC1L1 (NPC3) and methods of identifying ligands thereof” (Merck Sharp & Dohme Corp., priority 2004, dated 2011).
